Laboratory results: ChEMBL document CHEMBL6087485, “Novel 3-Sulfonamide Dual-Tail Pyrrol-2-one Bridged Molecules as Potent Human Carbonic Anhydrase Isoform Inhibitors: Design, Synthesis, Molecular Modeling Investigation, and Anticancer Activity in MeWo, SK-BR-3, and MG-63 Cell Lines” (J Med Chem, 2025)
Activity calls are given as the source filed them. The calls are words filed in the database; no cut-off is given here.

How the values were obtained:
Carbonic anhydrase 9 = Carbonic anhydrase 9 (Homo sapiens, UniProt Q16790); assay: Inhibition of recombinant human CA-IX incubated for 15 mins by phenol red dye based stopped-flow CO2 hydration assay
MeWo [1] = assay: Cytotoxicity against human MeWo cells at 10 uM incubated for 24 hrs by MTS assay; type: functional, cell-based
SK-BR-3 [2] = assay: Cytotoxicity against human SK-BR-3 cells at 10 uM incubated for 24 hrs by MTS assay; type: functional, cell-based
MG-63 [3] = assay: Cytotoxicity against human MG-63 cells at 10 uM incubated for 24 hrs by MTS assay; type: functional, cell-based
[4] = Cytotoxicity against human HGF cells at 10 uM incubated for 24 hrs by MTS assay; type: toxicity, cell-based
MeWo [5] = assay: Cytotoxicity against human MeWo cells at 50 uM incubated for 24 hrs by MTS assay; type: functional, cell-based
[6] = Cytotoxicity against human HGF cells at 50 uM incubated for 24 hrs by MTS assay; type: toxicity, cell-based
[7] = Cytotoxicity against human HGF cells assessed as inhibition of cell viability incubated for 24 hrs by MTS assay; type: toxicity, cell-based
MeWo [8] = assay: Cytotoxicity against human MeWo cells assessed as inhibition of cell viability incubated for 24 hrs by MTS assay; type: functional, cell-based
[9] = Synergistic cytotoxicity against human HGF cells assessed as inhibition of cell viability incubated for 24 hrs in presence of DOX by MTS assay; type: toxicity, cell-based
MeWo [10] = assay: Synergistic cytotoxicity against human MeWo cells assessed as inhibition of cell viability incubated for 24 hrs in presence of DOX by MTS assay; type: functional, cell-based
MeWo [11] = assay: Synergistic cytotoxicity against human MeWo cells assessed as inhibition of cell viability at 10 uM incubated for 24 hrs in presence of DOX by MTS assay; type: functional, cell-based
[12] = Synergistic cytotoxicity against human HGF cells assessed as cell viability at 10 uM incubated for 24 hrs in presence of DOX by MTS assay relative to control; type: toxicity, cell-based; settings: read-out: Activity
SK-BR-3 [13] = assay: Cytotoxicity against human SK-BR-3 cells at 50 uM incubated for 24 hrs by MTS assay; type: functional, cell-based
MG-63 [14] = assay: Cytotoxicity against human MG-63 cells at 50 uM incubated for 24 hrs by MTS assay; type: functional, cell-based

Ki (Carbonic anhydrase 9) | Compound | Activity (MeWo [1]) | Activity (SK-BR-3 [2]) | Activity (MG-63 [3]) | Activity [4] | other results
345 nM | NS(=O)(=O)c1cccc(NC2=CC(c3ccccc3O)N(c3cccc(S(N)(=O)=O)c3)C2=O)c1 (stereo unspecified) | inactive | inactive | inactive | Non-toxic | Activity (MeWo [5]): Active; Activity [6]: Non-toxic; IC50 at 24 h [7]: 117000 nM; IC50 (MeWo [8]): 94300 nM; IC50 at 24 h [9]: 36400 nM; IC50 (MeWo [10]): 12300 nM; Activity (MeWo [11]): Active; viability at 24 h, 10 µM [12]: > 70%
79.9 nM | NS(=O)(=O)c1cccc(NC2=CC(c3ccco3)N(c3cccc(S(N)(=O)=O)c3)C2=O)c1 (stereo unspecified) | – | – | – | – | –
345 nM | N#Cc1ccc(C2C=C(Nc3cccc(S(N)(=O)=O)c3)C(=O)N2c2cccc(S(N)(=O)=O)c2)cc1 (stereo unspecified) | – | – | – | – | –
95.1 nM | COc1ccc(C2C=C(Nc3cccc(S(N)(=O)=O)c3)C(=O)N2c2cccc(S(N)(=O)=O)c2)cc1O (stereo unspecified) | inactive | inactive | inactive | Non-toxic | –
87.2 nM | COc1ccc(C2C=C(Nc3cccc(S(N)(=O)=O)c3)C(=O)N2c2cccc(S(N)(=O)=O)c2)cc1OC (stereo unspecified) | – | – | – | – | –
615 nM | CC(C)c1ccc(C2C=C(Nc3cccc(S(N)(=O)=O)c3)C(=O)N2c2cccc(S(N)(=O)=O)c2)cc1 (stereo unspecified) | – | – | – | – | –
58 nM | NS(=O)(=O)c1cccc(NC2=CC(c3ccccc3)N(c3cccc(S(N)(=O)=O)c3)C2=O)c1 (stereo unspecified) | – | – | – | – | –
831 nM | NS(=O)(=O)c1cccc(NC2=CC(c3ccc(C(F)(F)F)cc3)N(c3cccc(S(N)(=O)=O)c3)C2=O)c1 (stereo unspecified) | – | – | – | – | –
369 nM | COc1cc(C2C=C(Nc3cccc(S(N)(=O)=O)c3)C(=O)N2c2cccc(S(N)(=O)=O)c2)ccc1O (stereo unspecified) | – | – | – | – | –
7 nM | COc1cccc(C2C=C(Nc3cccc(S(N)(=O)=O)c3)C(=O)N2c2cccc(S(N)(=O)=O)c2)c1O (stereo unspecified) | inactive | inactive | inactive | Non-toxic | IC50 at 24 h [7]: 70700 nM; IC50 (MeWo [8]): 63300 nM; IC50 at 24 h [9]: 27500 nM; IC50 (MeWo [10]): 11300 nM; Activity (MeWo [11]): Active; viability at 24 h, 10 µM [12]: > 70%
564 nM | CCCCc1ccc(C2C=C(Nc3cccc(S(N)(=O)=O)c3)C(=O)N2c2cccc(S(N)(=O)=O)c2)cc1 (stereo unspecified) | inactive | inactive | inactive | Non-toxic | Activity (MeWo [5]): Active; Activity (SK-BR-3 [13]): Active; Activity (MG-63 [14]): Active; Activity [6]: Toxic
443 nM | NS(=O)(=O)c1cccc(NC2=CC(c3ccc4c(c3)OCO4)N(c3cccc(S(N)(=O)=O)c3)C2=O)c1 (stereo unspecified) | – | – | – | – | –
539 nM | NS(=O)(=O)c1cccc(NC2=CC(c3cc(C(F)(F)F)cc(C(F)(F)F)c3)N(c3cccc(S(N)(=O)=O)c3)C2=O)c1 (stereo unspecified) | – | – | – | – | –
386 nM | NS(=O)(=O)c1cccc(NC2=CC(c3ccc(Br)cc3)N(c3cccc(S(N)(=O)=O)c3)C2=O)c1 (stereo unspecified) | – | – | – | – | –
30.3 nM | COc1cc(C2C=C(Nc3cccc(S(N)(=O)=O)c3)C(=O)N2c2cccc(S(N)(=O)=O)c2)cc(OC)c1O (stereo unspecified) | inactive | inactive | inactive | Non-toxic | –
50.1 nM | NS(=O)(=O)c1cccc(NC2=CC(c3ccc(F)cc3)N(c3cccc(S(N)(=O)=O)c3)C2=O)c1 (stereo unspecified) | inactive | inactive | inactive | Non-toxic | IC50 at 24 h [7]: 85800 nM; IC50 (MeWo [8]): 68600 nM; IC50 at 24 h [9]: 19600 nM; IC50 (MeWo [10]): 11200 nM; Activity (MeWo [11]): Active; viability at 24 h, 10 µM [12]: > 70%
52.4 nM | COc1ccc(O)c(C2C=C(Nc3cccc(S(N)(=O)=O)c3)C(=O)N2c2cccc(S(N)(=O)=O)c2)c1 (stereo unspecified) | – | – | – | – | –
93.8 nM | COc1ccccc1C1C=C(Nc2cccc(S(N)(=O)=O)c2)C(=O)N1c1cccc(S(N)(=O)=O)c1 (stereo unspecified) | – | – | – | – | –
